Test [1] deals with Candida albicans. Nature of the test: Inhibition of drug efflux in Candida albicans ATCC 24433 overexpressing AD(1-8)u- assessed as […] in nile red efflux incubated for 30 mins by flow cytometry. The test is classed as functional. (In general: A flow cytometer gives signals particle by particle.)
The subject of test [2] is Candida albicans. Briefly: Antifungal activity against Candida albicans ATCC 24433 assessed as inhibition of fungal growth by broth microdilution method. Format: functional. In general terms: Dilution methods test growth across graded concentrations, often in twofold steps.
The test system of the next test is Candida parapsilosis. Briefly: Antifungal activity against Candida parapsilosis ATCC 90018 assessed as inhibition of fungal growth by broth microdilution method. Particulars: Lodderomyces parapsilosis. The test is classed as functional.
For another test, the system named is Nakaseomyces glabratus. Nature of the test: Antifungal activity against Candida glabrata ATCC 2001 assessed as inhibition of fungal growth by broth microdilution method. The test is classed as functional.
A further test concerns Candida tropicalis. Briefly: Antifungal activity against Candida tropicalis ATCC 750 assessed as inhibition of fungal growth by broth microdilution method. Format: functional.
The test system of test [3] is [Candida] auris. Nature of the test: Antifungal activity against Candida auris 102 assessed as inhibition of fungal growth by broth microdilution method. Format: functional. The following applies: Candidozyma auris.
In test [4] the test system is [Candida] auris. Nature of the test: Antifungal activity against Candida auris 105 assessed as inhibition of fungal growth by broth microdilution method. The following applies: Candidozyma auris. The test is classed as functional.
Test [5] concerns [Candida] auris. Briefly: Antifungal activity against Candida auris 118 assessed as inhibition of fungal growth by broth microdilution method. Format: functional. Particulars: Candidozyma auris.
Test [6] concerns [Candida] auris. Nature of the test: Antifungal activity against wild type Candida auris 102 assessed as inhibition of fungal growth by broth microdilution method. The following applies: Candidozyma auris. The test is classed as functional.
Test [7] has as its system Candida albicans. Briefly: Synergistic antifungal activity against Candida albicans ATCC 24433 assessed as fractional inhibitory concentration index incubated for 48 hrs in presence of caspofungin by checker board assay. Format: functional.
The subject of test [8] is Candida albicans. Nature of the test: Fungicidal activity against Candida albicans ATCC 24433 assessed as reduction in fungal growth by measuring reduction in colony count at sub-MIC concentration measured after 48 hrs by time kill assay. The test is classed as functional, organism-based.
Test [9] relates to Cell membrane. Briefly: Disruption of membrane integrity in Candida albicans ATCC 24433 assessed as cell deformation measured after 30 mins by SEM analysis. Format: subcellular.
For test [10], the system named is Cell membrane. Nature of the test: Disruption of membrane integrity in Candida albicans ATCC 24433 assessed as cell surface perturbations measured after 3 hrs by SEM analysis.
Test [11] relates to Cell membrane. Nature of the test: Disruption of membrane integrity in Candida auris CBS10913 assessed as cell surface perturbations measured after 3 hrs by SEM analysis. The test is classed as subcellular. Particulars: Candidozyma auris.
Test [12] relates to Cell membrane. Nature of the test: Disruption of membrane integrity in Candida albicans ATCC 24433 assessed as cell shrinkage and lysis by measuring leakage of intracellular material measured after 6 hrs by SEM analysis. Format: subcellular.
Test [13] has as its system Cell membrane. Nature of the test: Disruption of membrane integrity in Candida auris CBS10913 assessed as cell shrinkage and lysis by measuring leakage of intracellular material measured after 6 hrs by SEM analysis. Particulars: Candidozyma auris.
Test [14] relates to Candida albicans. Nature of the test: Induction of ROS generation in Candida albicans ATCC 24433 at sub-inhibitory concentration incubated for 1 hr by DCFDA staining-based flow cytometric analysis. The test is classed as functional, organism-based.
Test [15] deals with [Candida] auris. Briefly: Induction of ROS generation in Candida auris CBS10913 at sub-inhibitory concentration incubated for 1 hr by DCFDA staining-based flow cytometric analysis. Format: functional, organism-based. The following applies: Candidozyma auris.
For test [16], the system named is Candida albicans. Briefly: Induction of ROS generation in Candida albicans ATCC 24433 assessed as increase in relative fluorescence unit at sub-inhibitory concentration incubated for 1 hr by DCFDA staining-based flow cytometric analysis. The test is classed as functional, organism-based.
The subject of test [17] is [Candida] auris. Briefly: Induction of ROS generation in Candida auris CBS10913 assessed as increase in relative fluorescence unit at sub-inhibitory concentration incubated for 1 hr by DCFDA staining-based flow cytometric analysis. Format: functional, organism-based. The following applies: Candidozyma auris.
Test [18] deals with Candida albicans. Nature of the test: Antifungal activity against wild type Candida albicans SN152 assessed as inhibition of fungal growth by broth microdilution method. The test is classed as functional.
The subject of test [19] is Candida albicans. Nature of the test: Antifungal activity against Candida albicans SN152 harboring CAS5 mutant assessed as inhibition of fungal growth by broth microdilution method. Format: functional.
In test [20] the test system is Candida albicans. Nature of the test: Antifungal activity against Candida albicans ATCC 24433 overexpressing transporter protein GU4 assessed as inhibition of fungal growth by broth microdilution method. Format: functional.
The test system of test [21] is Candida albicans. Nature of the test: Antifungal activity against Candida albicans ATCC 24433 overexpressing transporter protein GU5 assessed as inhibition of fungal growth by broth microdilution method. The test is classed as functional.
Test [22] deals with Candida albicans. Briefly: Antifungal activity against Candida albicans ATCC 24433 overexpressing transporter protein F2 assessed as inhibition of fungal growth by broth microdilution method. The test is classed as functional.
Test [23] concerns Candida albicans. Briefly: Antifungal activity against Candida albicans ATCC 24433 overexpressing transporter protein F5 assessed as inhibition of fungal growth by broth microdilution method. Format: functional.
The subject of test [24] is Candida albicans. Briefly: Antifungal activity against Candida albicans ATCC 24433 overexpressing ADCDR1-GFP assessed as inhibition of fungal growth by broth microdilution method. The test is classed as functional.
In test [25] the test system is Candida albicans. Briefly: Antifungal activity against Candida albicans ATCC 24433 overexpressing ADCaMDR1-GFP assessed as inhibition of fungal growth by broth microdilution method. Format: functional.
The test system of test [26] is Candida albicans. Nature of the test: Antifungal activity against Candida albicans ATCC 24433 overexpressing ADPDR5-GFP assessed as inhibition of fungal growth by broth microdilution method. The test is classed as functional.
Test [27] has as its system Candida albicans. Briefly: Antifungal activity against Candida albicans ATCC 24433 overexpressing AD(1-8)u-assessed as inhibition of fungal growth by broth microdilution method. Format: functional.
Test [28] relates to Candida albicans. Briefly: Synergistic antifungal activity against Candida albicans ATCC 24433 overexpressing ADCDR1-GFP assessed as fractional inhibitory concentration index incubated for 48 hrs in presence of caspofungin by checker board assay. The test is classed as functional.
Test [29] has as its system Candida albicans. Briefly: Synergistic antifungal activity against Candida albicans ATCC 24433 overexpressing ADCaMDR1-GFP assessed as fractional inhibitory concentration index incubated for 48 hrs in presence of caspofungin by checker board assay. Format: functional.
In test [30] the test system is Candida albicans. Nature of the test: Synergistic antifungal activity against Candida albicans ATCC 24433 overexpressing ADPDR5-G assessed as fractional inhibitory concentration index incubated for 48 hrs in presence of caspofungin by checker board assay. The test is classed as functional.
Test [31] has as its system Candida albicans. Nature of the test: Inhibition of drug efflux in Candida albicans ATCC 24433 overexpressing ADCDR1-GFP assessed as reduction in rhodamine 6g efflux preincubated for 45 mins followed by substrate addition and measured after 30 mins. The test is classed as functional. Particulars: dose 0.1-100 µg/ml, time 75.0 min, DDE = dose-dependent effect.
Test [32] has as its system Candida albicans. Briefly: Inhibition of drug efflux in Candida albicans ATCC 24433 overexpressing ADPDR5-GFP assessed as reduction in rhodamine 6g efflux preincubated for 45 mins followed by substrate addition and measured after 30 mins. Format: functional. Particulars: dose 0.1-100 µg/ml, time 75.0 min, DDE = dose-dependent effect.
The test system of test [33] is Candida albicans. Briefly: Inhibition of drug efflux in Candida albicans ATCC 24433 overexpressing ADCaMDR1-GF assessed as […] in nile red efflux incubated for 30 mins by flow cytometry. Format: functional.
The test system of test [34] is Candida. Briefly: Downregulation of CDC42 gene expression in Candida cells. Format: functional, cell-based.
Test [35] has as its system Candida. Nature of the test: Downregulation of CDC15 gene expression in Candida cells. Format: functional, cell-based.
The subject of test [36] is Candida. Briefly: Downregulation of CDC4 gene expression in Candida cells. The test is classed as functional, cell-based.
For test [37], the system named is Candida. Nature of the test: Downregulation of GUT1 gene expression in Candida cells. The test is classed as functional, cell-based.
The test system of test [38] is Candida. Briefly: Downregulation of STT4 gene expression in Candida cells. Format: functional, cell-based.

Each structure is given as a SMILES string. Converted amounts (≈) assume the structure as drawn. The source made the active and inactive calls. The rule behind the calls is not given here.

The term MIC80 denotes the lowest concentration that inhibits either 80% of growth or 80% of the strains tested, depending on the study.

Consider `CC/C(=C\c1ccc(OC)cc1)[N+](=O)[O-]`, for which the inhibition entry in the test on Candida albicans [1] and with Candida albicans [33] was “Active” throughout. In addition, the MIC80 with Candida albicans [2] was determined as 4 mg/L (≈ 19.3 µM); with Candida parapsilosis, 8 mg/L (≈ 38.6 µM); with Nakaseomyces glabratus, 4 mg/L (≈ 19.3 µM); in the test with Candida tropicalis it was 2 mg/L (≈ 9.65 µM); in test [Candida] auris [3], 4 mg/L (≈ 19.3 µM); in test [Candida] auris [4], 2 mg/L (≈ 9.65 µM). Besides, the MIC80 in test [Candida] auris [5] came out at 4 mg/L (≈ 19.3 µM); in test [Candida] auris [6], 2 mg/L (≈ 9.65 µM); with Candida albicans [18], 8 mg/L (≈ 38.6 µM); in the test with Candida albicans [19] it was 2 mg/L (≈ 9.65 µM); in the test on Candida albicans [20], 4 mg/L (≈ 19.3 µM); with Candida albicans [21], 4 mg/L (≈ 19.3 µM). In addition, the MIC80 came to 2 mg/L (≈ 9.65 µM) with Candida albicans [22]; 2 mg/L (≈ 9.65 µM) in the test with Candida albicans [23]; 4 mg/L (≈ 19.3 µM) in the test with Candida albicans [24]; 2 mg/L (≈ 9.65 µM) with Candida albicans [25]; 2 mg/L (≈ 9.65 µM) with Candida albicans [26]; 4 mg/L (≈ 19.3 µM) in the test on Candida albicans [27]. For the same molecule, the “fractional inhibitory concentration index (FICI)” value in the test with Candida albicans [7] was <2.5; with Candida albicans [28] it was <0.5; with Candida albicans [29] it was <0.5; with Candida albicans [30], <0.5. Further, the outcome in the test on Candida albicans [8], with Cell membrane [9], with Cell membrane [10], in the test with Cell membrane [11], in the test with Cell membrane [12] and in the test with Cell membrane [13] was Active. Also, the result (with Candida albicans [14]; in [Candida] auris [15]; with Candida albicans [16]; in [Candida] auris [17]) was Active. Also, the inhibition entry with Candida albicans [31] and in the test with Candida albicans [32] was “Dde” in each case.

Turning to `CC[C@H](C)C[C@H](C)CCCCCCCCC(=O)N[C@H]1C[C@@H](O)[C@@H](NCCN)NC(=O)[C@@H]2[C@@H](O)CCN2C(=O)[C@H]([C@H](O)CCN)NC(=O)[C@H]([C@H](O)[C@@H](O)c2ccc(O)cc2)NC(=O)[C@@H]2C[C@@H](O)CN2C(=O)[C@H]([C@@H](C)O)NC1=O` [CASPOFUNGIN], the outcome in the test with Candida [34], in the test on Candida [35], in the test on Candida [36], with Candida [37] and in the test on Candida [38] was Active. Moreover, the MIC80 in the test with Candida albicans [18] worked out at 0.125 mg/L (≈ 0.114 µM); with Candida albicans [19] it was 0.0156 mg/L (≈ 0.0143 µM).

For the origin of these results see ChEMBL document CHEMBL5113512, “β-Nitrostyrene derivatives as broad range potential antifungal agents targeting fungal cell wall” (2022).
